Legend:
[1] = tested on: Jurkat cells; conditions: cited from earlier work
[2] = tested on: IL-25; assay: IL-25 expression in lung fibroblasts, 4T1 tumor resection model (IF staining, flow cytometry); type: in vivo, mice
Experimental: BALB/c mice were subcutaneously injected with 4T1-Luc2 cells (5×10^5/100 μl PBS/mouse) into the fourth mammary fat pad under isoflurane anesthesia. Tumor growth was monitored by measuring the tumor volume according to the formula: volume=length×(width)^2/2. After tumors were established (180-200 mm^3) on day 14, test mice were divided into different groups (8 mice/group) and subjected to different treatments. At 15 days post tumor cell implantation, primary 4T1 tumors in situ were surgically removed by a tumor resection process. For drug treatment, mice were administered with different agents, including vehicle-control (PBS), mouse IL-25 protein (10 μg/kg, ProSpec, Vineland, N.J.), Q2-3 (2, 20 or 100 μg/kg) or docetaxel (2 mg/kg; Sigma-Aldrich), by intravenous injection for 3 weeks (3 injections/week) post tumor resection. For in vivo neutralization of mouse IL-25 activity, mice were treated intraperitoneally with either 100 μg anti-mouse IL-25 (IL-17E) antibody (clone 35B; Biolegend) or isotype control rat IgG (100 μg; rat, IgG1κ; Biolegend) at days 0, 3, 6, 9, 12, 15, 18 post tumor resection. To detect metastasis of human MDA-MD-231-Luc2 tumor cells, nude mice were injected subcutaneously with 5×10^5 MDA-MD-231-Luc2 cells into the mammary fat pad under isoflurane anesthesia. After tumors were established (250-350 mm^3) on day 24, test mice were divided into different groups (8 mice/group) and subjected to different treatments. At 25 days post tumor cell implantation, primary MDA-MD-231-Luc2 tumors in situ were surgically removed by a tumor resection process. For drug treatment, mice were administered with PBS (vehicle-control), Q2-3 (100 μg/kg), docetaxel (5 mg/kg) or Q2-3 (100 μg/kg)+docetaxel (5 mg/kg), by intravenous injection for 3 weeks (3 injections/week) post tumor resection. To monitor the progression of mouse (4T1) or human (MDA-MD-231) metastatic tumors, test mice treated with different drugs/agents were compared for their tumor metastatic activity and survival rate aftern another 8 weeks. Bioluminescence signals from the 4T1-luc2 tumor cells in test mice were analyzed using a non-invasive IVIS imaging system (Calipers, Hopkinton, Mass.) after intraperitoneal injection of 150 mg/kg D-luciferin (NanoLight technology, Pinetop, Ariz.).
Lung tissue specimens obtained from each tumor-resected mouse were fixed with 4% formalin and embedded in paraffin. For histological comparison, 6 μm-thick tissue sections were made and stained with hematoxylin and eosin (H&E). For immunofluorescence staining, fixed tissue sections were initially immersed in boiling sodium citrate buffer (0.01 M sodium citrate buffer, pH 6.0) for 30 min Lung tissue sections were blocked with 5% nonfat milk, and incubated with anti-FSP-1 antibody (1:200 dilution; Millipore), FITC-conjugated anti-CD206 antibody (1:200 dilution; Biolegend) or PE-conjugated anti-IL-25 antibody (1:100; R&D) in 1% nonfat milk for 1 hour at room temperature. Sections were then washed with PBS containing 0.1% Tween 20. To detect primary antibodies, some sections were incubated with FITC-conjugated anti-mouse-IgG (1:200; Jackson Immunoresearch, West Grove, Pa.) for FSP-1. 4′,6-Diamidino-2-phenylindole dihydrochloride (1 μg/ml; Sigma-Aldrich) was used to stain the nuclei. Fluorescence microscopy evaluation of immunostained tissue sections was performed using a Zeiss Axiovert 200 M microscope (Carl Zeiss, Heidelberg, Germany) Images were captured with a digital camera (Orca ER, Hamamatsu) and processed using Axiovision 4.6.3 (Carl Zeiss).
For detection of myeloid derived suppressor cells (MDSCs), cells from mouse lung tissue in each group were collected and stained for 30 min at 4° C. with antibodies against specific cell markers, including FITC-conjugated anti-mouse CD11b (for cell surface), APC-Cy7 conjugated anti-mouse Ly-6C and PE conjugated anti-mouse Ly-6G, (both for intracellular staining). All three antibodies were obtained from Biolegend, (San Diego, Calif.). […]

For `COC(=O)/C=C/c1cc(O)c2c(c1)C(C(=O)OC)C(c1ccc(O)c(O)c1)O2` (centres unmarked) [Q2-3, methyl(E)-3-[2-(3,4-dihydroxyphenyl)-7-hydroxy-3-methoxycarbonyl-2,3-dihydro-1-benzofuran-5yl]-prop-2-enoate], the anti-proliferation effect [1] is listed as “significant anti-proliferation effect”, the “total FSP-1+ER-TR7+ fibroblast population in lung” value ([2]; 3 weeks post tumor resection, PBS control 5.2%) is listed as 7.3% and the “cell population of IL-25+ fibroblasts (FSP-1+ER-TR7+IL-25+ cells) in lung” value ([2]; 3 weeks post tumor resection, PBS control 16.7%) is listed as 79.5%. The “IL-25 expression in lung fibroblasts (IF staining)” value ([2]; Q2-3 100 μg/kg, 21 days post tumor resection) was “readily detectable stimulatory effect” and the “increase in FSP-1+IL-25+ fibroblast population in spleen or other tissues” value ([2]; data not shown) was “not detected”.
